Source: PubChem BioAssay AID1982 (Sanford-Burnham Center for Chemical Genomics, 2009)
The source made the active and inactive calls. The rule behind the calls is not given here.

What was measured:
Experiment in all cases: kinase panel binding selectivity, selectivity assay, biochemical, KINOMEscan (AID 1982)
[1] = test system: ULK1; conditions: KINOMEscan 353-kinase binding panel, qPCR, at 10 µM, hits give low values
[2] = target: cGMP-dependent protein kinase 1 (Homo sapiens) (UniProt Q13976); conditions: KINOMEscan 353-kinase binding panel, qPCR; PRKG1; at 10 µM; hits give low values
[3] = target: Serine/threonine-protein kinase 33 (Homo sapiens) (UniProt Q9BYT3); conditions: KINOMEscan 353-kinase binding panel, qPCR; STK33; at 10 µM; hits give low values
[4] = target: Tyrosine-protein kinase BTK (Homo sapiens) (UniProt Q06187); conditions: KINOMEscan 353-kinase binding panel, qPCR, at 10 µM, hits give low values
[5] = test system: DCAMKL3; conditions: KINOMEscan 353-kinase binding panel, qPCR, at 10 µM, hits give low values
[6] = test system: MLCK; conditions: KINOMEscan 353-kinase binding panel, qPCR, at 10 µM, hits give low values
[7] = target: Serine/threonine-protein kinase D1 (Homo sapiens) (UniProt Q15139); conditions: KINOMEscan 353-kinase binding panel, qPCR; PRKD1; at 10 µM; hits give low values
[8] = target: STE20-like serine/threonine-protein kinase (Homo sapiens) (UniProt Q9H2G2); conditions: KINOMEscan 353-kinase binding panel, qPCR; SLK; at 10 µM; hits give low values
[9] = test system: MST1; conditions: KINOMEscan 353-kinase binding panel, qPCR, at 10 µM, hits give low values
[10] = target: Tyrosine-protein kinase HCK (Homo sapiens) (UniProt P08631); conditions: KINOMEscan 353-kinase binding panel, qPCR, at 10 µM, hits give low values
[11] = test system: CSNK1E; conditions: KINOMEscan 353-kinase binding panel, qPCR, at 10 µM, hits give low values
[12] = test system: PAK4; conditions: KINOMEscan 353-kinase binding panel, qPCR, at 10 µM, hits give low values
[13] = target: Dual specificity protein kinase CLK1 (Homo sapiens) (UniProt P49759); conditions: KINOMEscan 353-kinase binding panel, qPCR, at 10 µM, hits give low values
[14] = target: Receptor-type tyrosine-protein kinase FLT3 (Homo sapiens) (UniProt P36888); conditions: KINOMEscan 353-kinase binding panel, qPCR, at 10 µM, hits give low values
[15] = target: Focal adhesion kinase 1 (Homo sapiens) (UniProt Q05397); conditions: KINOMEscan 353-kinase binding panel, qPCR; PTK2; at 10 µM; hits give low values
[16] = test system: JAK1(Kin.Dom.2); conditions: KINOMEscan 353-kinase binding panel, qPCR, at 10 µM, hits give low values
[17] = test system: SgK085; conditions: KINOMEscan 353-kinase binding panel, qPCR, at 10 µM, hits give low values
[18] = test system: CHEK2; conditions: KINOMEscan 353-kinase binding panel, qPCR, at 10 µM, hits give low values
[19] = test system: PAK2; conditions: KINOMEscan 353-kinase binding panel, qPCR, at 10 µM, hits give low values
[20] = target: Tyrosine-protein kinase Fyn (Homo sapiens) (UniProt P06241); conditions: KINOMEscan 353-kinase binding panel, qPCR, at 10 µM, hits give low values
[21] = target: Mitogen-activated protein kinase 14 (Homo sapiens) (UniProt Q16539); conditions: KINOMEscan 353-kinase binding panel, qPCR; p38-alpha; at 10 µM; hits give low values
[22] = target: Serine/threonine-protein kinase Nek2 (Homo sapiens) (UniProt P51955); conditions: KINOMEscan 353-kinase binding panel, qPCR, at 10 µM, hits give low values
[23] = test system: IRAK3; conditions: KINOMEscan 353-kinase binding panel, qPCR, at 10 µM, hits give low values
[24] = test system: STK36; conditions: KINOMEscan 353-kinase binding panel, qPCR, at 10 µM, hits give low values
[25] = test system: p38-beta; conditions: KINOMEscan 353-kinase binding panel, qPCR, at 10 µM, hits give low values
[26] = target: RAF proto-oncogene serine/threonine-protein kinase (Homo sapiens) (UniProt P04049); conditions: KINOMEscan 353-kinase binding panel, qPCR; RAF1; at 10 µM; hits give low values
[27] = test system: FGFR4; conditions: KINOMEscan 353-kinase binding panel, qPCR, at 10 µM, hits give low values
[28] = test system: MYLK2; conditions: KINOMEscan 353-kinase binding panel, qPCR, at 10 µM, hits give low values
[29] = target: Mitogen-activated protein kinase 3 (Homo sapiens) (UniProt P27361); conditions: KINOMEscan 353-kinase binding panel, qPCR; ERK1; at 10 µM; hits give low values
[30] = test system: JAK1(Kin.Dom.1); conditions: KINOMEscan 353-kinase binding panel, qPCR, at 10 µM, hits give low values
[31] = target: Serine/threonine-protein kinase 3 (Homo sapiens) (UniProt Q13188); conditions: KINOMEscan 353-kinase binding panel, qPCR; MST2; at 10 µM; hits give low values
[32] = target: Tyrosine-protein kinase ABL1 (Homo sapiens) (UniProt P00519); conditions: KINOMEscan 353-kinase binding panel, qPCR, at 10 µM, hits give low values
[33] = target: Phosphorylase b kinase gamma catalytic chain, liver/testis isoform (Homo sapiens) (UniProt P15735); conditions: KINOMEscan 353-kinase binding panel, qPCR; PHKG2; at 10 µM; hits give low values
[34] = test system: STK16; conditions: KINOMEscan 353-kinase binding panel, qPCR, at 10 µM, hits give low values

Receptor-type tyrosine-protein kinase FLT3 (Homo sapiens), sequence (P36888 whole entry, looked up): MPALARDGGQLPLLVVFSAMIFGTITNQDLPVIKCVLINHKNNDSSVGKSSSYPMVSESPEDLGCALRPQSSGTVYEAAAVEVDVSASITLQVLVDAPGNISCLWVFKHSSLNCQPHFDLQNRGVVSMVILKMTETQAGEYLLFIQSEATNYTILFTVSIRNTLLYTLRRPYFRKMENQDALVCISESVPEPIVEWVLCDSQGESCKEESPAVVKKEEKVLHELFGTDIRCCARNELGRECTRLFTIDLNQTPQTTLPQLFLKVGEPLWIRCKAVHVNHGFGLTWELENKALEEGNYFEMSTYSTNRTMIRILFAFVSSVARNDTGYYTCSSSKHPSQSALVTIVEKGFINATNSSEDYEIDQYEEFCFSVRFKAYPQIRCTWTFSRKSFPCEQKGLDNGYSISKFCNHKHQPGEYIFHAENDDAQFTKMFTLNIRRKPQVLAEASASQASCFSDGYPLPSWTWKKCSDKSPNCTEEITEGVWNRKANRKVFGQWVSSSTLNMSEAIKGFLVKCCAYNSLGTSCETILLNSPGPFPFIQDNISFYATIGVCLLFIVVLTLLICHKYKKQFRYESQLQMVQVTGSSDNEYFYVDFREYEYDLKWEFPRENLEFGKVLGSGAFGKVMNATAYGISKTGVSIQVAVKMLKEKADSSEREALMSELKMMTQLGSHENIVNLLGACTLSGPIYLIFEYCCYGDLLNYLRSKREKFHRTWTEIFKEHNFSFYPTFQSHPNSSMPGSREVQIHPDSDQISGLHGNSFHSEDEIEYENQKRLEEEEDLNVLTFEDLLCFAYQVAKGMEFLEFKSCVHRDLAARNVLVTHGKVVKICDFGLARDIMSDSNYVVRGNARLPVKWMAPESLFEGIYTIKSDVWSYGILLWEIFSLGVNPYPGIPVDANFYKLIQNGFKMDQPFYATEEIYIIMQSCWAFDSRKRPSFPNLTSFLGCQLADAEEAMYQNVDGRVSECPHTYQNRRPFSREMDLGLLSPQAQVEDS
Tyrosine-protein kinase ABL1 (Homo sapiens), sequence (P00519 whole entry, looked up, canonical isoform): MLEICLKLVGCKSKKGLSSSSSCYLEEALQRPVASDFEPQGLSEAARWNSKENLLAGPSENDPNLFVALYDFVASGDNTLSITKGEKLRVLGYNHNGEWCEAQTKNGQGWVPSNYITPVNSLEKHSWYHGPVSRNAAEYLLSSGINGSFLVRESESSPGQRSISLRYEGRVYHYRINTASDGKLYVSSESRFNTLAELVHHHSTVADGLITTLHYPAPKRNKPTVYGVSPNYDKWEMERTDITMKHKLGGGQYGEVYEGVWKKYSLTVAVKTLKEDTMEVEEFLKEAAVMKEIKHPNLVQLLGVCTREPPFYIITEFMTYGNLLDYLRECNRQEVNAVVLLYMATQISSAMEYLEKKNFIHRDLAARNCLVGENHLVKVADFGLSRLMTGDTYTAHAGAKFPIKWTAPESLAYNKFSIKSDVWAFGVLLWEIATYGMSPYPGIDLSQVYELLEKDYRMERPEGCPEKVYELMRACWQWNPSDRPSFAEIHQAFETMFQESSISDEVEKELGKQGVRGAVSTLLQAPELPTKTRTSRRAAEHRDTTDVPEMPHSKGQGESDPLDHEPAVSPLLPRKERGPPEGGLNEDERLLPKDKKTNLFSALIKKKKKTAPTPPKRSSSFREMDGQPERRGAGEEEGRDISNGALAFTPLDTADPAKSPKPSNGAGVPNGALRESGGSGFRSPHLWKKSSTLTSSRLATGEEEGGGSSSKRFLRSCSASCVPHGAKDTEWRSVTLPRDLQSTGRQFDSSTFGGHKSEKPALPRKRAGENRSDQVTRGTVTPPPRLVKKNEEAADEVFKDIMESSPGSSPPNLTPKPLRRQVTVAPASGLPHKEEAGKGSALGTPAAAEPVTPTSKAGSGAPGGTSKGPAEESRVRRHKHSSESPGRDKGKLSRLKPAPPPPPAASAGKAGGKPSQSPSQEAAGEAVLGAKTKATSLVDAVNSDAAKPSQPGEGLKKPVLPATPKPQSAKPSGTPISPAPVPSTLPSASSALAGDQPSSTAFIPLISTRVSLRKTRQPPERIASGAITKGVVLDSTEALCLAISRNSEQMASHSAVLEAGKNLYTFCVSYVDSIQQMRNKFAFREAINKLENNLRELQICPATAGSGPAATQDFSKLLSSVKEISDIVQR
Focal adhesion kinase 1 (Homo sapiens), sequence (Q05397 whole entry, looked up): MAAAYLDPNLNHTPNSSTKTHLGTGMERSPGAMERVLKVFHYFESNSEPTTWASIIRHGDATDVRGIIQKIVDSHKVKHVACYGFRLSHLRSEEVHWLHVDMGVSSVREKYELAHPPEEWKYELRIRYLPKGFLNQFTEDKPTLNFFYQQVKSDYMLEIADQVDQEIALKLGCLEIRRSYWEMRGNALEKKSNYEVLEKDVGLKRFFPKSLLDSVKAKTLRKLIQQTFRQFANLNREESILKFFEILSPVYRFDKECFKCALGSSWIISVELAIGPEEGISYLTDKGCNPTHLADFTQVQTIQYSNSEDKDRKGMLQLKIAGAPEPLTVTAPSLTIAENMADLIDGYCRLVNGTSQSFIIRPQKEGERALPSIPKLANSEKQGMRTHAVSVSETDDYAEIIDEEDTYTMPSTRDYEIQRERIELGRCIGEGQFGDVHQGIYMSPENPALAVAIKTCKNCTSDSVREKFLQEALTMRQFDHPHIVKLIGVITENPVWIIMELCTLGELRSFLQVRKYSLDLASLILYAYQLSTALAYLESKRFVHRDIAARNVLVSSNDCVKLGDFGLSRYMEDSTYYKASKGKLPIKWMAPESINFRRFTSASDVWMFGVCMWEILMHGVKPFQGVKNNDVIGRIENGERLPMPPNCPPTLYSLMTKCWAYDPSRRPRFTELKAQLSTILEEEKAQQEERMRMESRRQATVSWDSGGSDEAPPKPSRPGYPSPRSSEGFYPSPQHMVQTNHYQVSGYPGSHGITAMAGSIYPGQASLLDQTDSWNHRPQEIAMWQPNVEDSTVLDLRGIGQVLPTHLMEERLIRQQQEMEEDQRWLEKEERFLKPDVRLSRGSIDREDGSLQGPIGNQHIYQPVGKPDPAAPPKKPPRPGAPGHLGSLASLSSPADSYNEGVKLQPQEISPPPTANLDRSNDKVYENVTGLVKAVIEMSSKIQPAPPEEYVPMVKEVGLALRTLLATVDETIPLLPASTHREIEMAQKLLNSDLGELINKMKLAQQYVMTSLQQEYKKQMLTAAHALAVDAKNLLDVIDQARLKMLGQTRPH
STE20-like serine/threonine-protein kinase (Homo sapiens), sequence (Q9H2G2 whole entry, looked up): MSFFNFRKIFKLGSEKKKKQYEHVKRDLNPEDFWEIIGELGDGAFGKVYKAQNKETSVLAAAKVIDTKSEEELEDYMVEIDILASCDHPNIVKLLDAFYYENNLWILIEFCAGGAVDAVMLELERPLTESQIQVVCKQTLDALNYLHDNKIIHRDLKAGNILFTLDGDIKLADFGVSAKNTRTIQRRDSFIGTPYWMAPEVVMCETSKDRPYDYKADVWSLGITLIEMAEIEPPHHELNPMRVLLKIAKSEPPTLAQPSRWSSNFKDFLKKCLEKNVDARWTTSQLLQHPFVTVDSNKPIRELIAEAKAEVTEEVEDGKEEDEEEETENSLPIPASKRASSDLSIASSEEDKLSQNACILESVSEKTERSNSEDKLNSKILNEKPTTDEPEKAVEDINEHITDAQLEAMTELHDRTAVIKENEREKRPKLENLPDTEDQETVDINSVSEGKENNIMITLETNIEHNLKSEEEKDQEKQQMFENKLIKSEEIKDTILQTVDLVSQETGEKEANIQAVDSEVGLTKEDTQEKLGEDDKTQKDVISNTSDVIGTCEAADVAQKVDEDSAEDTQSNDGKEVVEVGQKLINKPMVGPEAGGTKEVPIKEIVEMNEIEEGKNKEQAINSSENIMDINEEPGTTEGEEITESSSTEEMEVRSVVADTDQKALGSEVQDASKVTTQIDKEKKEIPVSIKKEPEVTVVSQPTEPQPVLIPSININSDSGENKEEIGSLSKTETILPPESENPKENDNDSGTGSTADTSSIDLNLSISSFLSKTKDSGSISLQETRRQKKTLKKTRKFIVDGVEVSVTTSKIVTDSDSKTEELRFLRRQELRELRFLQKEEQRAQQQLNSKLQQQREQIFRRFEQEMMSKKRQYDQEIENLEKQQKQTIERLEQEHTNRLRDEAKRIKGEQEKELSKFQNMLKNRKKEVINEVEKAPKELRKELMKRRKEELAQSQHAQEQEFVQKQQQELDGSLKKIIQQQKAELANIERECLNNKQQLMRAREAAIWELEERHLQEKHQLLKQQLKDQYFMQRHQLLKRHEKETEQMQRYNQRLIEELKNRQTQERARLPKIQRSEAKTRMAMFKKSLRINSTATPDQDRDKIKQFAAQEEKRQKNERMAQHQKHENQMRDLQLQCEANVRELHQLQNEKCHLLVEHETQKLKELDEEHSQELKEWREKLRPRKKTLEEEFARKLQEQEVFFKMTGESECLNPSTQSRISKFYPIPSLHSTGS
Mitogen-activated protein kinase 14 (Homo sapiens), sequence (Q16539 whole entry, looked up): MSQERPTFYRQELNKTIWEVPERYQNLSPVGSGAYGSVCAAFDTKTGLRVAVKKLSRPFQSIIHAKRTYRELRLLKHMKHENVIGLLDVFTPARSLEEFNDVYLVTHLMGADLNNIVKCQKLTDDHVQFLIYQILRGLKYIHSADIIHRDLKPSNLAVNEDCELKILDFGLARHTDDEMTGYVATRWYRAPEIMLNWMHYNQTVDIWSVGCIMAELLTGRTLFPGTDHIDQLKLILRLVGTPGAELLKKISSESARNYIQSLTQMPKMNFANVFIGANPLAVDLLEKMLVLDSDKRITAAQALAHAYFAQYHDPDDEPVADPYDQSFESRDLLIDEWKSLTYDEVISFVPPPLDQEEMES

percent of control binding [1]: 100% (inactive)
percent of control binding [2]: 100% (inactive)
percent of control binding [3]: 98% (inactive)
percent of control binding [4]: 85% (inactive)
percent of control binding [5]: 100% (inactive)
percent of control binding [6]: 91% (inactive)
percent of control binding [7]: 100% (inactive)
percent of control binding [8]: 100% (inactive)
percent of control binding [9]: 90% (inactive)
percent of control binding [10]: 93% (inactive)
percent of control binding [11]: 96% (inactive)
percent of control binding [12]: 92% (inactive)
percent of control binding [13]: 98% (inactive)
percent of control binding [14]: 100% (inactive)
percent of control binding ([14]; FLT3(D835H)): 100% (inactive)
percent of control binding ([14]; FLT3(D835Y)): 99% (inactive)
percent of control binding ([14]; FLT3(ITD)): 100% (inactive)
percent of control binding ([14]; FLT3(K663Q)): 100% (inactive)
percent of control binding ([14]; FLT3(N841I)): 94% (inactive)
percent of control binding [15]: 100% (inactive)
percent of control binding [16]: 90% (inactive)
percent of control binding [17]: 99% (inactive)
percent of control binding [18]: 100% (inactive)
percent of control binding [19]: 84% (inactive)
percent of control binding [20]: 82% (inactive)
percent of control binding [21]: 96% (inactive)
percent of control binding [22]: 84% (inactive)
percent of control binding [23]: 100% (inactive)
percent of control binding [24]: 100% (inactive)
percent of control binding [25]: 100% (inactive)
percent of control binding [26]: 43% (inactive)
percent of control binding [27]: 81% (inactive)
percent of control binding [28]: 97% (inactive)
percent of control binding [29]: 94% (inactive)
percent of control binding [30]: 100% (inactive)
percent of control binding [31]: 100% (inactive)
percent of control binding [32]: 100% (inactive)
percent of control binding ([32]; ABL1(E255K)): 94% (inactive)
percent of control binding ([32]; ABL1(F317I)): 100% (inactive)
percent of control binding ([32]; ABL1(F317L)): 92% (inactive)
percent of control binding ([32]; ABL1(H396P)): 98% (inactive)
percent of control binding ([32]; ABL1(M351T)): 100% (inactive)
percent of control binding ([32]; ABL1(Q252H)): 100% (inactive)
percent of control binding ([32]; ABL1(T315I)): 86% (inactive)
percent of control binding ([32]; ABL1(Y253F)): 100% (inactive)
percent of control binding [33]: 100% (inactive)
percent of control binding [34]: 77% (inactive)
SMILES: Cc1cc2nc(NCCCO)n(CC(=O)c3cc(C(C)(C)C)c(O)c(C(C)(C)C)c3)c2cc1C
